Assay results as given in PubChem BioAssay (NCI).
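Results reflect a 48-hour exposure of cells in 96-well plates to compound at five concentrations. Abbreviation: GI50, concentration required for 50% inhibition of growth. TGI is the concentration that stops growth completely.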

Key:
Experiment in all cases: NCI anticancer screen, dose series, 48 h
[1] = tested on: A549 NSCLC
[2] = tested on: CCRF-CEM leukemia
[3] = tested on: HCC-2998 colon
[4] = tested on: KM12 colon
[5] = tested on: NCI-H522 lung
[6] = tested on: OVCAR-5 ovarian
[7] = tested on: SK-MEL-28 melanoma
[8] = tested on: SNB-75 CNS
[9] = tested on: UACC-62 melanoma
[10] = tested on: UO-31 renal

Structure (SMILES)	TGI [1]	TGI [2]	TGI [3]	TGI [4]	TGI [5]	TGI [6]	TGI [7]	TGI [8]	TGI [9]	TGI [10]	GI50 [1]	GI50 [2]	GI50 [3]	GI50 [4]	GI50 [5]	GI50 [6]	GI50 [7]	GI50 [8]	GI50 [9]	GI50 [10]
O=C(/C=C/c1ccccc1)c1ccc(NCc2nc3ccccc3[nH]2)cc1	17.4 µM	8.38 µM	4.2 µM	4.54 µM	14.7 µM	23.2 µM	32.6 µM	20.9 µM	21.4 µM	20.2 µM										
CC(C)(C)OC(=O)NCCCCCCCn1c2c(c3ccccc3c1=O)C(=O)c1ccccc1-2	> 100 µM	> 100 µM	> 100 µM	> 100 µM	> 100 µM	> 100 µM	> 100 µM	49.7 µM	72.8 µM	> 100 µM	31.8 µM	76.1 µM	40.6 µM	60.6 µM	26.4 µM	> 100 µM	50.4 µM	21.5 µM	20 µM	25.6 µM
C=CC(OCC)(OCC)OCC	> 100 µM	> 100 µM	> 100 µM	> 100 µM	> 100 µM	> 100 µM	> 100 µM	> 100 µM	> 100 µM	> 100 µM										
COc1ccc(OC)c(Cn2cc3c(c2-c2ccccc2)CCc2cnoc2-3)c1	> 100 µM	> 100 µM	> 100 µM	> 100 µM	6.25 µM	> 100 µM	> 100 µM	9.9 µM	> 100 µM	> 100 µM	5.75 µM	4.48 µM	8.83 µM	3.61 µM	1.74 µM	10.8 µM	6.8 µM	2.89 µM	3.8 µM	6.38 µM
COc1cc(NCCCCCCCNC(C)C)c2nccc(C)c2c1	38.3 µM	33 µM	19 µM	27.9 µM	35 µM	29.7 µM	32.1 µM	24.3 µM	17.6 µM	23 µM	18.8 µM	12.1 µM	6.29 µM	13.7 µM	16 µM	15.4 µM	17.7 µM	11.7 µM	4.88 µM	7.41 µM
O=C(N[C@@H](C[Se][Se]C[C@H](NC(=O)c1ccc(Br)cc1F)C(=O)O)C(=O)O)c1ccc(Br)cc1F	> 100 µM	> 100 µM	> 100 µM	> 100 µM	> 100 µM	> 100 µM	> 100 µM	> 100 µM	> 100 µM	> 100 µM	> 100 µM	> 100 µM	> 100 µM	> 100 µM	> 100 µM	> 100 µM	> 100 µM	> 100 µM	> 100 µM	> 100 µM
C=C1C[C@@H]2CC[C@@]34C[C@H]5O[C@H]6[C@@H](O3)[C@H]3O[C@H](CC[C@@H]3O[C@H]6[C@@H]5O4)CC(=O)C[C@@H]3[C@@H](OC)[C@@H](C[C@H](O)CN)O[C@H]3C[C@H]3O[C@@H](CC[C@@H]1O2)C[C@@H](C)C3=C	> 100 µM	> 100 µM	> 100 µM	> 100 µM	11.8 µM	> 100 µM	> 100 µM	> 100 µM	> 100 µM	> 100 µM	< 0.01 µM	< 0.01 µM	< 0.01 µM	< 0.01 µM	< 0.01 µM	< 0.01 µM		< 0.01 µM	< 0.01 µM	1.34 µM
CCOC(=O)c1cc2c3c(c(O)c(OC)c2s1)N(C(=O)c1cc2c4c(c(O)c(OC)c2s1)N(C(C)=O)CC4)CC3	> 100 µM	> 100 µM	> 100 µM	> 100 µM	> 100 µM	> 100 µM	> 100 µM	67.1 µM	> 100 µM	> 100 µM										
O=C1OCC2=C1C(c1ccccc1)c1cc3c(cc1N2CCO)OCO3 (centres undefined)	> 50 µM	> 50 µM	> 50 µM	> 50 µM	> 50 µM	> 50 µM	> 50 µM	> 50 µM	> 50 µM	> 50 µM	14.7 µM	4.54 µM	9.91 µM	2.37 µM	1.09 µM	13.4 µM	> 50 µM	2.06 µM	2.53 µM	27.8 µM
COC(=O)C1(O)CC(=O)CCC1c1ccc(OC)cc1 (centres undefined)	> 100 µM	> 100 µM	> 100 µM	> 100 µM	> 100 µM	> 100 µM	> 100 µM	> 100 µM	> 100 µM	> 100 µM										
CC(C)(C)C(=O)[CH-]C(=O)C(C)(C)C.CC(C)(C)C(=O)[CH-]C(=O)C(C)(C)C.CN(C)c1ccc([O-])cc1.CN(C)c1ccc([O-])cc1.[Ti+4]	> 100 µM	> 100 µM	> 100 µM	> 100 µM	> 100 µM	> 100 µM	> 100 µM	> 100 µM	> 100 µM	> 100 µM	> 100 µM	> 100 µM	> 100 µM	64.8 µM	> 100 µM	> 100 µM	> 100 µM	26.1 µM	> 100 µM	> 100 µM
